Reference: patent US20140271604A1, “HDAC Inhibitor Polymorphic Forms and Methods of Use” (priority 2013, published 2014)
“Also recorded” adds a separate entry of the source.

How the values were obtained:
[1] = Stability study in climate chamber (48-72 h, 40° C./75% RH), form assigned by XRPD; settings: for XRPD Form c: form assigned after the stability studies / XRPD Form b: form assigned after the stability studies: at 40° C./75% RH; for XRPD Form b: form assigned after the stability studies: samples from anti-solvent addition, label = form before stability; for Stability after storage in a climate chamber: 48 to 72 hours at 40 degrees centigrade and 75% relative humidity
Experimental: (§1) Solubility assessment experiments were carried out in a variety of solvents followed by storage in a climate chamber for 48 to 72 hours at 40 degrees centigrade and 75% relative humidity.

[2] = Solubility assessment experiments in organic solvents
Experimental: as §1

[3] = Storage of samples under ambient conditions, form assigned by XRPD; assay type: physicochemical
tumors = settings: cited from earlier work
[4] = Concentration of saturated AR42 stock solutions (anti-solvent addition crystallization); assay type: physicochemical; settings: equilibrated 24 hours, filtered
Experimental: Tables 3-5 illustrate anti-solvent addition crystallization experiments conducted on the indicated Form. In this example, saturated solutions of AR42 were prepared in the following solvents: Acetone, 2-Butanone, Methanol, Ethanol, Isopropanol, Acetonitrile, 1,4-Dioxane and Dimethylformamide. Excess AR42 was added to the solvent and the suspension equilibrated for 24 hours. After equilibration, the suspension was filtered through a […] filter to remove particulate solids.
An equal volume of anti-solvent selected from the following list was added to 300 μL of the saturated solutions of AR42: Toluene, Nitrobenzene, Nitromethane, Water, n-Heptane, Cyclohexane. An additional 300 μL of anti-solvent was added if no precipitation occurred. Aliquots of 300 μL of anti-solvent were added until precipitation occurred or the total volume was 1,200 μL of anti-solvent. The solution was allowed to incubate for 60 minutes at room temperature in between the addition of anti-solvent. If no precipitation occurred after the last addition of anti-solvents, samples were incubated for 24 hours at 4° C. Samples in which precipitation occurred were centrifuged for 10 minutes at 3000 rpm to separate the liquid from the solid. The liquid phase was removed and the solid phase dried and analyzed by XRPD. The solutions in which no precipitation occurred were placed under deep vacuum and dried to completion. Solids were collected and analysed by XRPD.

[5] = 46-72 H, samples from solvent-drop grinding, Table 8, label = form after grinding
[6] = 48-72 H, samples from cooling-evaporative crystallization, Table 6, label = form after recrystallization
[7] = 1-1.5 weeks ambient, cooling-evaporative crystallization, Table 6, label = form after recrystallization
[8] = 1.5-2 weeks ambient, solvent-drop grinding, Table 8, label = form after grinding
[9] = 48-72 H, samples from cooling-evaporative crystallization, Table 7, label = form after recrystallization
[10] = 1-1.5 weeks ambient, cooling-evaporative crystallization, Table 7, label = form after recrystallization
[11] = 48-72 H, samples from slurry conversion, Table 9, label = form after slurry
[12] = 1-1.5 weeks ambient, slurry conversion, Table 9, label = form after slurry

SMILES: CC(C)C(C(=O)Nc1ccc(C(=O)NO)cc1)c1ccccc1 (centres unmarked) [Form A + Form B1]
- XRPD Form c: form assigned after the stability studies [1, 5]: Form A
- XRPD Form c: form assigned after the stability studies [1, 6]: Form A_wet**
- Concentration ([2]; Table 2, solvent Acetone): 108900 µg/mL
- XRPD Form b: form assigned after storage under ambient conditions [3, 7]: Form B1_wet**
- XRPD Form b: form assigned after storage under ambient conditions [3, 8]: Form A_wet**

SMILES: CC(C)[C@H](C(=O)Nc1ccc(C(=O)NO)cc1)c1ccccc1 [Am_oily]
- XRPD Form b: form assigned after the stability studies ([1]; 48-72 H, Table 5): Form A
- Concentration ([2]; Table 1, solvent NMP): 482500 µg/mL

SMILES: CC(C)C(C(=O)Nc1ccc(C(=O)NO)cc1)c1ccccc1 (centres unmarked) [Form B1 + Form D1]
- Concentration ([2]; Table 2, solvent Dioxane, 1,4-): 32300 µg/mL

SMILES: CC(C)C(C(=O)Nc1ccc(C(=O)NO)cc1)c1ccccc1 (centres unmarked) [Form A + Am]
- XRPD Form c: form assigned after the stability studies [1, 6]: Form A + Am*
- Concentration ([2]; Table 1, solvent Amyl Ether): <1000 µg/mL
- XRPD Form b: form assigned after storage under ambient conditions ([3]; 1-1.5 weeks ambient, cooling-evaporative crystallization, Table 6, label = form after recrystallization, experiment ML13, solvent 1 Butyl Acetate): Form U1 + Am*
- XRPD Form b: form assigned after storage under ambient conditions ([3]; 1-1.5 weeks ambient, cooling-evaporative crystallization, Table 6, label = form after recrystallization, experiment ML14, solvent 1 Chlorobenzene): Form A_wet**

SMILES: CC(C)[C@H](C(=O)Nc1ccc(C(=O)NO)cc1)c1ccccc1 [Form A, (S)—N-hydroxy-4-(3-methyl-2-phenylbutanamido)benzamide]
- XRPD Form c: form assigned after the stability studies [1, 5]: Form A
- XRPD Form b: form assigned after the stability studies ([1]; 48-72 H, Table 3): Form A
- XRPD Form c: form assigned after the stability studies [1, 9]: Form A
- Concentration ([2]; Table 2, solvent Amyl Ether): 18400 µg/mL
- Concentration ([2]; Table 2, solvent Dimethyl-4-heptanone 2,6-): 20300 µg/mL
- Concentration ([2]; Table 2, solvent Hexafluorobenzene): 21400 µg/mL
- Concentration ([2]; Table 2, solvent Nitromethane): 21200 µg/mL
- Concentration ([2]; Table 2, solvent Toluene): 18800 µg/mL
- Concentration ([2]; Table 2, solvent Trifluoroethanol, 2,2,2-): 20600 µg/mL
- XRPD Form b: form assigned after storage under ambient conditions [3, 7]: Form A
- XRPD Form b: form assigned after storage under ambient conditions [3, 10]: Form A
- XRPD Form b: form assigned after storage under ambient conditions ([3]; 1.5-2 weeks ambient, solvent-drop grinding, Table 8, label = form after grinding, ground with a drop of Octanol-1): Form A
- XRPD Form b: form assigned after storage under ambient conditions ([3]; 1.5-2 weeks ambient, solvent-drop grinding, Table 8, label = form after grinding, ground with a drop of Propyl acetate): Form A5a

SMILES: CC(C)[C@H](C(=O)Nc1ccc(C(=O)NO)cc1)c1ccccc1 [Form H1, (S)—N-hydroxy-4-(3-methyl-2-phenylbutanamido)benzamide]
- XRPD Form c: form assigned after the stability studies [1, 6]: Form A
- XRPD Form c: form assigned after the stability studies [1, 11]: Form A
- XRPD Form b: form assigned after storage under ambient conditions [3, 7]: Form A
- XRPD Form b: form assigned after storage under ambient conditions [3, 12]: Form A

SMILES: CC(C)[C@H](C(=O)Nc1ccc(C(=O)NO)cc1)c1ccccc1 [Form C, (S)—N-hydroxy-4-(3-methyl-2-phenylbutanamido)benzamide]
- Concentration ([2]; Table 2, solvent Dimethyl Sulfoxide): 472500 µg/mL

SMILES: CC(C)[C@H](C(=O)Nc1ccc(C(=O)NO)cc1)c1ccccc1 [Form L1, (S)—N-hydroxy-4-(3-methyl-2-phenylbutanamido)benzamide]
- XRPD Form c: form assigned after the stability studies [1, 6]: Form L1
- XRPD Form c: form assigned after the stability studies [1, 9]: Form L1
- Stability after storage in a climate chamber [1]: exhibited a particular degree of stability
- XRPD Form b: form assigned after storage under ambient conditions [3, 7]: Form L1
- XRPD Form b: form assigned after storage under ambient conditions [3, 10]: Form L1

SMILES: CC(C)[C@H](C(=O)Nc1ccc(C(=O)NO)cc1)c1ccccc1 [Form A_wet]
- XRPD Form c: form assigned after the stability studies [1, 5]: Form A
- XRPD Form b: form assigned after the stability studies ([1]; 48-72 H, Table 3): Form A + Am*
- Concentration ([2]; Table 1, solvent Hexafluorobenzene): <1000 µg/mL
- XRPD Form b: form assigned after storage under ambient conditions ([3]; 1-1.5 weeks ambient, cooling-evaporative crystallization, Table 6, label = form after recrystallization, experiment ML7, solvent 1 Dichloroethane): Form A
- XRPD Form b: form assigned after storage under ambient conditions ([3]; 1-1.5 weeks ambient, cooling-evaporative crystallization, Table 6, label = form after recrystallization, experiment ML8, solvent 1 Fluorbenzene): Form A_wet**
- XRPD Form b: form assigned after storage under ambient conditions ([3]; 1-1.5 weeks ambient, cooling-evaporative crystallization, Table 6, label = form after recrystallization, experiment ML32, solvent 1 Heptane, N-): Form U1 + Am*
- XRPD Form b: form assigned after storage under ambient conditions [3, 8]: Form A_wet**

SMILES: CC(C)[C@H](C(=O)Nc1ccc(C(=O)NO)cc1)c1ccccc1 [AR-42, (S)—N-hydroxy-4-(3-methyl-2-phenylbutanamido)benzamide]
- Inhibitory effect in tumors (tumors; breast, prostate, ovarian, blood cell, liver, and brain tumors): demonstrated inhibitory effect
- Potency and activity compared to vorinostat (SAHA) (tumors; solid tumors and hematological malignancies): greater potency and activity
- Concentration (mg/mL) of saturated stock solution ([4]; stock solvent Acetone): 175.9 mg/mL
- Concentration (mg/mL) of saturated stock solution ([4]; stock solvent Acetonitrile): 13.5 mg/mL
- Concentration (mg/mL) of saturated stock solution ([4]; stock solvent Butanone 2-): 130.7 mg/mL
- Concentration (mg/mL) of saturated stock solution ([4]; stock solvent Dimethylformamide N,N-): 335 mg/mL
- Concentration (mg/mL) of saturated stock solution ([4]; stock solvent Dioxane, 1,4-): 46.8 mg/mL
- Concentration (mg/mL) of saturated stock solution ([4]; stock solvent Ethanol): 134.1 mg/mL
- Concentration (mg/mL) of saturated stock solution ([4]; stock solvent Propanol 2-): 227.8 mg/mL
- Concentration (mg/mL) of saturated stock solution ([4]; stock solvent methanol): 390.5 mg/mL
- Concentration ([2]; Table 1, solvent Chloroform): <2000 µg/mL
- Concentration ([2]; Table 1, solvent Nitromethane): 1000 µg/mL
- Concentration ([2]; Table 1, solvent Toluene): <1000 µg/mL
- Concentration ([2]; Table 1, solvent Trifluoroethanol, 2,2,2-): 7000 µg/mL

SMILES: CC(C)[C@H](C(=O)Nc1ccc(C(=O)NO)cc1)c1ccccc1 [Form B1, (S)—N-hydroxy-4-(3-methyl-2-phenylbutanamido)benzamide]
- XRPD Form c: form assigned after the stability studies [1, 9]: Form B1
- Stability after storage in a climate chamber [1]: exhibited a particular degree of stability
- Concentration ([2]; Table 1, solvent Dimethyl-4-heptanone 2,6-): 2000 µg/mL
- Concentration ([2]; Table 2, solvent Chloroform): 20800 µg/mL
- XRPD Form b: form assigned after storage under ambient conditions [3, 10]: Form B1

SMILES: CC(C)[C@H](C(=O)Nc1ccc(C(=O)NO)cc1)c1ccccc1 [Wet sample]
- XRPD Form b: form assigned after the stability studies ([1]; 48-72 H, Table 3): Form A + Am*; also recorded: Form W + Am*
- XRPD Form c: form assigned after the stability studies [1, 6]: Form A
- XRPD Form b: form assigned after storage under ambient conditions [3, 7]: Form D1_wet**

SMILES: CC(C)[C@H](C(=O)Nc1ccc(C(=O)NO)cc1)c1ccccc1 [Form H2, (S)—N-hydroxy-4-(3-methyl-2-phenylbutanamido)benzamide]
- XRPD Form c: form assigned after the stability studies [1, 5]: Form A
- XRPD Form b: form assigned after storage under ambient conditions [3, 8]: Form A2

SMILES: CC(C)[C@H](C(=O)Nc1ccc(C(=O)NO)cc1)c1ccccc1 [Form Z_wet]
- XRPD Form c: form assigned after the stability studies [1, 6]: Form Z_wet**
- XRPD Form b: form assigned after storage under ambient conditions [3, 7]: Form U1 + Am*

SMILES: CC(C)C(C(=O)Nc1ccc(C(=O)NO)cc1)c1ccccc1 (centres unmarked) [Form A + Form V]
- XRPD Form c: form assigned after the stability studies [1, 5]: Form A
- XRPD Form b: form assigned after storage under ambient conditions [3, 8]: Form A

SMILES: CC(C)[C@H](C(=O)Nc1ccc(C(=O)NO)cc1)c1ccccc1 [Form K_wet]
- XRPD Form c: form assigned after the stability studies [1, 6]: Form A
- XRPD Form b: form assigned after storage under ambient conditions [3, 7]: Form A

SMILES: CC(C)[C@H](C(=O)Nc1ccc(C(=O)NO)cc1)c1ccccc1 [Form B1_wet]
- XRPD Form c: form assigned after the stability studies [1, 11]: Form A5a
- Concentration ([2]; Table 2, solvent Isophorone): 243700 µg/mL
- XRPD Form b: form assigned after storage under ambient conditions [3, 10]: Form B1_wet**
- XRPD Form b: form assigned after storage under ambient conditions [3, 12]: Form B1

SMILES: CC(C)[C@H](C(=O)Nc1ccc(C(=O)NO)cc1)c1ccccc1 [Form F1, (S)—N-hydroxy-4-(3-methyl-2-phenylbutanamido)benzamide]
- XRPD Form b: form assigned after the stability studies ([1]; 48-72 H, Table 3): Form A + Am*
- XRPD Form b: form assigned after the stability studies ([1]; 48-72 H, Table 5): Form A
- XRPD Form c: form assigned after the stability studies [1, 9]: Form A
- XRPD Form c: form assigned after the stability studies [1, 11]: Form A
- XRPD Form b: form assigned after storage under ambient conditions [3, 12]: Form A_wet**

SMILES: CC(C)[C@H](C(=O)Nc1ccc(C(=O)NO)cc1)c1ccccc1 [Form D1, (S)—N-hydroxy-4-(3-methyl-2-phenylbutanamido)benzamide]
- XRPD Form c: form assigned after the stability studies [1, 5]: Form A
- XRPD Form b: form assigned after the stability studies ([1]; 48-72 H, Table 5): Form D2 + Am*
- XRPD Form c: form assigned after the stability studies [1, 9]: Form A
- Concentration ([2]; Table 2, solvent Nitrobenzene): 19700 µg/mL
- XRPD Form b: form assigned after storage under ambient conditions [3, 10]: Form D1
- XRPD Form b: form assigned after storage under ambient conditions [3, 8]: Form D1

SMILES: CC(C)[C@H](C(=O)Nc1ccc(C(=O)NO)cc1)c1ccccc1 [Form A8, (S)—N-hydroxy-4-(3-methyl-2-phenylbutanamido)benzamide]
- XRPD Form c: form assigned after the stability studies [1, 9]: Form A
- XRPD Form b: form assigned after storage under ambient conditions [3, 10]: Form A8
